The target of test [1] is PIM1 (Homo sapiens, UniProt P11309). As to the kind of experiment: KinaseGlo Pim1 ATP depletion assay. The format is biochemical. Here is the method:
KinaseGlo Pim1 ATP Depletion Assay
The activity of PIM1 is measured using a luciferase-luciferin based ATP detection reagent to quantify ATP depletion resulting from kinase-catalyzed phosphoryl transfer to a peptide substrate. Compounds to be tested are dissolved in 100% DMSO and directly distributed into white 384-well plates at 0.5 μA per well. To start the reaction, 10 μA of 5 nM Pim1 kinase and 80 μM BAD peptide (RSRHSSYPAGT-OH) in assay buffer (50 mM HEPES pH 7.5, 5 mM MgCl2, 1 mM DTT, 0.05% BSA) is added into each well. After 15 minutes, 10 μl of 40 μM ATP in assay buffer is added. Final assay concentrations are 2.5 nM PIM1, 20 μM ATP, 40 μM BAD peptide and 2.5% DMSO. The reaction is performed until approximately 50% of the ATP is depleted, then stopped with the addition of 20 μA KinaseGlo Plus (Promega Corporation) solution. The stopped reaction is incubated for 10 minutes and the remaining ATP detected via luminescence on the Victor2 (Perkin Elmer). […] IC50, the half maximal inhibitory concentration, represents the concentration of a test compound that is required for 50% inhibition of its target in vitro.

Test [2] has as its target PIM2 (Homo sapiens, UniProt Q9P1W9). As to the kind of experiment: KinaseGlo Pim2 ATP depletion assay. The format is biochemical. Here is the method: KinaseGlo Pim2 ATP Depletion Assay
The activity of PIM2 is measured using a luciferase-luciferin based ATP detection reagent to quantify ATP depletion resulting from kinase-catalyzed phosphoryl transfer to a peptide substrate. Compounds to be tested are dissolved in 100% DMSO and directly distributed into white 384-well plates at 0.5 piper well. To start the reaction, 10 μl of 10 nM Pim2 kinase and 20 μM BAD peptide (RSRHSSYPAGT-OH) in assay buffer (50 mM HEPES pH 7.5, 5 mM MgCl2, 1 mM DTT, 0.05% BSA) is added into each well. After 15 minutes, 10 μl of 8 μM ATP in assay buffer is added. Final assay concentrations are 5 nM PIM2, 4 μM ATP, 10 μM BAD peptide and 2.5% DMSO. The reaction is performed until approximately 50% of the ATP is depleted, then stopped with the addition of 20 μl KinaseGlo Plus (Promega Corporation) solution. The stopped reaction is incubated for 10 minutes and the remaining ATP detected via luminescence on the Victor2 (Perkin Elmer).

For test [3], the target named is PIM3 (Homo sapiens, UniProt Q86V86). As to the kind of experiment: KinaseGlo Pim3 ATP depletion assay. The format is biochemical. Here is the method: KinaseGlo Pim3 ATP Depletion Assay
The activity of PIM3 is measured using a luciferase-luciferin based ATP detection reagent to quantify ATP depletion resulting from kinase-catalyzed phosphoryl transfer to a peptide substrate. Compounds to be tested are dissolved in 100% DMSO and directly distributed into white 384-well plates at 0.5 μl per well. To start the reaction, 10 μl of 10 nM Pim3 kinase and 200 μM BAD peptide (RSRHSSYPAGT-OH) in assay buffer (50 mM HEPES pH 7.5, 5 mM MgCl2, 1 mM DTT, 0.05% BSA) is added into each well. After 15 minutes, 10 μl of 80 μM ATP in assay buffer is added. Final assay concentrations are 5 nM […], 40 μM ATP, 100 μM BAD peptide and 2.5% DMSO. The reaction is performed until approximately 50% of the ATP is depleted, then stopped by the addition of 20 μl KinaseGlo Plus (Promega Corporation) solution. The stopped reaction is incubated for 10 minutes and the remaining ATP detected via luminescence on the Victor2 (Perkin Elmer).

Test [4] has as its target GSK3β (Homo sapiens, UniProt P49841). As to the kind of experiment: GSK3β ATP depletion assay. The format is biochemical. Conditions: read-out: GSK3b IC50. The protocol:
GSK3β ATP Depletion Assay
The activity of GSK3β is measured using a luciferase-luciferin based ATP detection reagent to quantify ATP depletion resulting from kinase-catalyzed phosphoryl transfer to a peptide substrate. Compounds to be tested are dissolved in 100% DMSO and directly distributed into white 384-well plates at 0.5 μl per well. To start the reaction, 10 μl of 10 nM GSK3B kinase and 20 μM biotinylated CREB peptide ([…](pS)YR-NH2) in assay buffer (50 mM TRIS pH 7.5, 15 mM MgCl2, 1 mM DTT, 0.1% BSA) is added into each well. After 15 minutes, 10 μl of 2 μM ATP in assay buffer is added. Final assay concentrations are 5 nM GSK3B, […], 10 μM b-CREB peptide and 2.5% DMSO. The reaction is performed until approximately 50% of the ATP is depleted, then stopped with the addition of 20 μl KinaseGlo (Promega Corporation) solution. The stopped reaction is incubated for 10 minutes and the remaining ATP is detected via luminescence on the Victor2 (Perkin Elmer).

In test [5] the test system is KMS11 (human myeloma cell line). As to the kind of experiment: Cell proliferation assay (CellTiter-Glo), KMS11. The format is cell-based. To be noted: KMS11-Luc cells. Here is the method:
KMS11 (human myeloma cell line), were cultured in IMDM supplemented with 10% FBS, sodium pyruvate and antibiotics. Cells were plated in the same medium at a density of 2000 cells per well into 96 well tissue culture plates, with outside wells vacant, on the day of assay. MMl.s (human myeloma cell line), were cultured in RPMI1640 supplemented with 10% FBS, sodium pyruvate and antibiotics. Cells were plated in the same medium at a density of 5000 cells per well into 96 well tissue culture plates, with outside wells vacant, on the day of assay.
Test compounds supplied in DMSO were diluted into DMSO at 500 times the desired final concentrations before dilution into culture media to 2 times final concentrations. Equal volumes of 2× compounds were added to the cells in 96 well plates and incubated at 37° C. for 3 days.
After 3 days plates were equilibrated to room temperature and equal volume of CellTiter-Glow Reagent (Promega) was added to the culture wells. The plates were agitated briefly and luminescent signal was measured with luminometer.
Using the procedures of Cell Proliferation Assay, the EC50 concentration of indicated compounds of the examples in were determined in KMS11 cells as shown in Table 4.

Chain of PIM1 (P11309 whole entry): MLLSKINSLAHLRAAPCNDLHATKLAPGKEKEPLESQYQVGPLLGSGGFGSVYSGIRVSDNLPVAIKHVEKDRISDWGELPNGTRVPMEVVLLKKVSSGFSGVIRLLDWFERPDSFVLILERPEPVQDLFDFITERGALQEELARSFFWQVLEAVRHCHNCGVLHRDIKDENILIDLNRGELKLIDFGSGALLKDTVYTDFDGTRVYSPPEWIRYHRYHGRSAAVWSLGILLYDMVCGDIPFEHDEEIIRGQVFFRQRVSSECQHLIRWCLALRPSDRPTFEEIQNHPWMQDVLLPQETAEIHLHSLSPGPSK
Chain of GSK3β (P49841 whole entry, species assumed): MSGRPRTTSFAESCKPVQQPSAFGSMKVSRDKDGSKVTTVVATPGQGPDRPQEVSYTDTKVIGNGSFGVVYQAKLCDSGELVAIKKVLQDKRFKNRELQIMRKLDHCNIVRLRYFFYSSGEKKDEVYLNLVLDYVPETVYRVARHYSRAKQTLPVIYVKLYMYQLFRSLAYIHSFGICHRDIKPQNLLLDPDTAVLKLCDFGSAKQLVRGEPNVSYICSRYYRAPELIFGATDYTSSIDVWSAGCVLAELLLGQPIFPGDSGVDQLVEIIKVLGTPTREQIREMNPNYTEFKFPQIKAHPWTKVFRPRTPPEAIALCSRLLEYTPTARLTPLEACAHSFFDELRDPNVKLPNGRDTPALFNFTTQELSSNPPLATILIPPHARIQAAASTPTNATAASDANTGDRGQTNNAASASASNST
Chain of PIM2 (Q9P1W9 whole entry): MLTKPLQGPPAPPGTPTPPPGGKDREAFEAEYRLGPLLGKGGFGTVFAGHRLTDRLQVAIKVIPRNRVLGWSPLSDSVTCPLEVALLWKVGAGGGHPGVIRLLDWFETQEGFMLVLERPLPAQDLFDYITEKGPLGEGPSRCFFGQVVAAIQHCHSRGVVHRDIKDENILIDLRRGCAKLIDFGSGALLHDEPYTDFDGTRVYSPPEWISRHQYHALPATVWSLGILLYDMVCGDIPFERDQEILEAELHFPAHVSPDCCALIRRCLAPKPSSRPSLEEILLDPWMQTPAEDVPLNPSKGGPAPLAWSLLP

Regarding `C[C@@H]1O[C@H](c2ccncc2NC(=O)c2ccc(F)c(-c3c(F)cccc3F)n2)[C@@H](O)[C@H](O)[C@@]1(C)O` (stereo in doubt) [Example 82, 6-(2,6-difluorophenyl)-5-fluoro-N-(4-((2R,3S,4S,5R,6S)-3,4,5-trihydroxy-5,6-dimethyltetrahydro-2H-pyran-2-yl)pyridin-3-yl)picolinamide], the IC50 in test [1] came to 2 nM; in test [2], 36 nM; in test [3] it was 7 nM; in test [4] it was 1170 nM. In test [5] (Homo sapiens, KMS-11), this molecule showed a concentration for a half-maximal effect (EC50) greater than 10000 nM.

For `CC[C@H]1O[C@@H](c2ccncc2NC(=O)c2ccc(F)c(-c3c(F)cccc3F)n2)C[C@@H](O)[C@]1(C)O` [Example 164, 6-(2,6-difluorophenyl)-N-(4-((2R,4R,5S,6R)-6-ethyl-4,5-dihydroxy-5-methyltetrahydro-2H-pyran-2-yl)pyridin-3-yl)-5-fluoropicolinamide], the IC50 in test [1] came out at 0.8 nM; in test [2], 1.9 nM; in test [3] it was 1.6 nM; in test [4] it was 2070 nM. Also, the concentration giving a half-maximal response (EC50) in test [5] (Homo sapiens, KMS-11) came out at 2760 nM.

For the molecule `N#CC[C@H]1O[C@@H](c2ccncc2NC(=O)c2nc(-c3c(F)cccc3F)c(F)cc2N)C[C@@H](O)[C@@H]1O` [Example 152, 3-amino-N-(4-((2R,4R,5S,6R)-6-(cyanomethyl)-4,5-dihydroxytetrahydro-2H-pyran-2-yl)pyridin-3-yl)-6-(2,6-difluorophenyl)-5-fluoropicolinamide], the IC50 was 1.3 nM in test [1], 5.4 nM in test [2], 2.3 nM in test [3] and 450 nM in test [4]. The molecule also returned a 50% effective concentration (EC50) in test [5] greater than 10000 nM.

Regarding `C=C1[C@H](O)C[C@H](c2ccncc2NC(=O)c2nc(-c3c(F)cccc3F)ncc2N)OC12CC2` [Example 8, 5-amino-2-(2,6-difluorophenyl)-N-(4-((5R,7R)-7-hydroxy-8-methylene-4-oxaspiro[2.5]octan-5-yl)pyridin-3-yl)pyrimidine-4-carboxamide], the IC50 in test [1] was 51 nM; in test [2] it was 323 nM; in test [3], 149 nM; in test [4] it was 1330 nM. Besides, the EC50 in test [5] (Homo sapiens, KMS-11) was greater than 10000 nM.

`CC[C@H]1O[C@@H](c2ccncc2NC(=O)c2nc(-c3c(F)cccc3F)c(F)cc2N)C[C@@H](O)[C@@H]1O` [Example 43, 3-amino-6-(2,6-difluorophenyl)-N-(4-((2R,4R,5S,6R)-6-ethyl-4,5-dihydroxytetrahydro-2H-pyran-2-yl)pyridin-3-yl)-5-fluoropicolinamide]: the 50% inhibitory concentration (IC50) was 1 nM in test [1], 1 nM in test [2], 1 nM in test [3] and 188 nM in test [4]. The same molecule showed an EC50 in test [5] (Homo sapiens, KMS-11) of 1700 nM.

For `N#CC[C@H]1O[C@@H](c2ccncc2NC(=O)c2nc(-c3c(F)cccc3F)c(F)cc2N)C[C@@H](O)[C@@H]1O` [Example 139, 3-amino-N-(4-((2R,4R,5S,6R)-6-(cyanomethyl)-4,5-dihydroxytetrahydro-2H-pyran-2-yl)pyridin-3-yl)-6-(2,6-difluorophenyl)-5-fluoropicolinamide], the IC50 in test [1] is 1 nM; in test [2], 5 nM; in test [3], 2 nM; in test [4] it was 450 nM. The molecule further had an EC50 in test [5] (Homo sapiens, KMS-11) greater than 10000 nM.

On to `O=C(Nc1cnccc1[C@H]1C[C@@H](O)[C@H](O)[C@@H](CO)O1)c1csc(-c2c(F)cccc2F)n1` [Example 80, 2-(2,6-difluorophenyl)-N-(4-((2R,4R,5S,6R)-4,5-dihydroxy-6-(hydroxymethyl)tetrahydro-2H-pyran-2-yl)pyridin-3-yl)thiazole-4-carboxamide], for which the IC50 in test [1] is 44 nM; in test [2], 4920 nM; in test [3] it was 171 nM; in test [4] it was 1230 nM. Also, in test [5] (Homo sapiens, KMS-11), the EC50 was greater than 10000 nM.

In the case of `O=C(Nc1cnccc1[C@H]1C[C@@H](O)[C@@]2(O)CCCC[C@H]2O1)c1ccnn(-c2ccccc2F)c1=O` [Example 190, N-(4-((2R,4R,4aS,8aR)-4,4a-dihydroxyoctahydro-2H-chromen-2-yl)pyridin-3-yl)-2-(2-fluorophenyl)-3-oxo-2,3-dihydropyridazine-4-carboxamide], the 50% inhibitory concentration (IC50) in test [1] came out at 33.9 nM; in test [2], 494 nM; in test [3], 35.5 nM; in test [4], 38.5 nM. Besides, the EC50 in test [5] (Homo sapiens, KMS-11) was greater than 10000 nM.

Regarding `O=C(Nc1cnccc1[C@@H]1C[C@H](O)CCO1)c1ccc(F)c(-c2c(F)cccc2F)n1` [Example 132, 6-(2,6-difluorophenyl)-5-fluoro-N-(4-((2S,4R)-4-hydroxytetrahydro-2H-pyran-2-yl)pyridin-3-yl)picolinamide], the IC50 in test [1] was found to be 6 nM; in test [2], 465 nM; in test [3], 33 nM; in test [4] it was 196 nM. In test [5] (Homo sapiens, KMS-11), this molecule came in with an EC50 greater than 10000 nM.

With `O=C(Nc1cnccc1[C@H]1OCC[C@@H](CO)O1)c1ccc(F)c(-c2c(F)cccc2F)n1` [Example 103, 6-(2,6-difluorophenyl)-5-fluoro-N-(4-((2S,4S)-4-(hydroxymethyl)-1,3-dioxan-2-yl)pyridin-3-yl)picolinamide], the 50% inhibitory concentration (IC50) in test [1] worked out at 11 nM; in test [2], 502 nM; in test [3], 27 nM; in test [4], 2420 nM. Further, the concentration for a half-maximal effect (EC50) in test [5] (Homo sapiens, KMS-11) was greater than 10000 nM.

For `CC[C@H]1O[C@@H](c2ccncc2NC(=O)c2ccc(F)c(-c3c(F)ccc(C#N)c3F)n2)C[C@@H](O)[C@@H]1O` [Example 2, 6-(3-cyano-2,6-difluorophenyl)-N-(4-((2R,4R,5S,6R)-6-ethyl-4,5-dihydroxytetrahydro-2H-pyran-2-yl)pyridin-3-yl)-5-fluoropicolinamide], the concentration for half-maximal inhibition (IC50) in test [1] turned out to be 42 nM; in test [2], 13 nM; in test [3], 8.3 nM; in test [4] it was 51 nM. Further, the 50% effective concentration (EC50) in test [5] (Homo sapiens, KMS-11) is greater than 10000 nM.

The values above are taken from US20130109682A1, “CYCLIC ETHER COMPOUNDS USEFUL AS KINASE INHIBITORS” (NOVARTIS AG, priority 2010, published 2013).
